Reference: patent US20110038948A1, “Methods of Reducing the Production of Reactive Oxygen Species and Methods of Screening or Identifying Compounds and Compositions that Reduce the Production of Reactive Oxygen Species” (UNIVERSITY OF TENNESSEE RESEARCH FOUNDATION, priority 2005, published 2011)

What was measured:
adiponectin = experiment: Adiponectin expression in 3T3-L1 adipocytes; assay type: cell-based, mouse; conditions: 48 h
Protocol: 3T3-L1 pre-adipocytes were incubated at a density of 8000 cells/cm^2 (10 cm^2 dish) and grown in Dulbecco's modified Eagle's medium (DMEM) containing 10% FBS and antibiotics (adipocyte medium) at 37° C. in 5% CO2 in air. Confluent pre-adipocytes were induced to differentiate with a standard differentiation medium consisting of DMEM-F10 (1:1, vol/vol) medium supplemented with 1% fetal bovine serum (FBS), 1 μM dexamethasone, isobutylmethylxanthine (IBMX) (0.5 mM) and antibiotics (1% Penicillin-Streptomycin). Pre-adipocytes were maintained in this differentiation medium for 3 days and subsequently cultured in adipocyte medium. Cultures were re-fed every 2-3 days to allow 90% cells to reach fully differentiation before conducting chemical treatment. […] Cell viability was measured via trypan blue exclusion. Adipocyte and muscle 18s, TNFα, IL-6, IL-8, IL-15 and adiponectin were quantitatively measured using a smart cycler real-time PCR system (Cepheid, Sunnyvale, Calif.) with a TaqMan 1000 Core Reagent Kit (Applied Biosystems, Branchburg, N.J.). […] Reactions of quantitative RT-PCR for standards and unknown samples were also performed according to the instructions of Smart Cycler System (Cepheid, Sunnyvale, Calif.) and TaqMan Real Time PCR Core Kit (Applied Biosystems, Branchburg, N.J.). The mRNA quantitation for each sample was further normalized using the corresponding 18s quantitation.

C2C12 myotubes = experiment: Fatty acid oxidation (palmitate oxidation) in muscle cells; assay type: cell-based, murine; conditions: calcitriol 10 nM, 48 hours; p<0.05
Protocol: FIG. 53: Fatty acid oxidation was determined via palmitate oxidation. […] Data are corrected for DNA content. Values are presented as mean±SEM, n=6. Means with different letter differ with p<0.05.
The adipose tissue-skeletal muscle endocrine axis may play a potential role in regulating metabolic energy partitioning. […] While both calcium and dairy accelerate adipose tissue loss, dairy exerts a substantially greater effect and exerts a protective effect on lean tissue during hypocaloric diets. We have shown that dietary calcium modulation of adiposity is mediated, in part, by suppression of calcitriol, while the additional effect of dairy is mediated by additional bioactive components; these include the high concentration of leucine, a key factor in the regulation of muscle protein turnover. […] However, the effect of leucine and calcium, in regulating this process is unclear. Accordingly, present study was designed to investigate the effect of leucine, calcitriol and calcium on energy metabolism in murine adipocytes and muscle cells. Leucine induced a 41% increase in fatty acid oxidation in C2C12 muscle cells (p<0.001) and decreased fatty acid synthase gene expression by 66% (p<0.001) in 3T3-L1 adipocytes. Calcitriol decreased muscle cell fatty acid oxidation by 17% (p<0.05) and increased adipocyte FAS gene expression by 3-fold (p<0.05).

| Compound | effect on adiponectin production (adiponectin) | decrease in muscle cell fatty acid oxidation (C2C12 myotubes) [%] |
| --- | --- | --- |
| OO [H2O2, hydrogen peroxide] | without significant effect |  |
| C=C1/C(=C\C=C2/CCC[C@]3(C)[C@@H]([C@H](C)CCCC(C)(C)O)CC[C@@H]23)C[C@@H](O)C[C@@H]1O [calcitriol, 1,25-(OH)2-D3] |  | 17 |
